These results are taken from patent US8629276B2, “Inhibitors of human immunodeficiency virus replication” (priority 2012, dated 2014).

pEC50: −log10 of the molar value.

The test system of the assay is recombinant NL-Rluc virus. The experiment in a line: Inhibition of HIV replication (NL-RLuc virus, luciferase readout in MT-2 cells). The following applies: Human immunodeficiency virus 1, MT2, 120 h. Type of assay: cell-based.
What is called pEC50 is −log10 of the EC50, conventionally taken in molar units. As for `CC(C)c1nc2c(c(-c3ccc(F)cc3)c1C(OC(C)(C)C)C(=O)O)CN(c1cccc(-c3ccccc3)c1)CC2(C)C` (stereo not shown) [Example 17, 2-(6-([1,1′-Biphenyl]-3-yl)-4-(4-fluorophenyl)-2-isopropyl-8,8-dimethyl-5,6,7,8-tetrahydro-1,6-naphthyridin-3-yl)-2-(tert-butoxy)acetic acid], the negative-log EC50 (pEC50) was 5.34. The figure for `CC(C)c1nc2c(c(-c3ccc(F)cc3)c1C(OC(C)(C)C)C(=O)O)CN(c1ccc(-c3ccccc3)cc1)CC2(C)C` (stereo not shown) [Example 18, 2-(6-([1,1′-Biphenyl]-4-yl)-4-(4-fluorophenyl)-2-isopropyl-8,8-dimethyl-5,6,7,8-tetrahydro-1,6-naphthyridin-3-yl)-2-(tert-butoxy)acetic acid] is 5.70; for `Cc1ccc(-c2c3c(nc(C)c2C(OC(C)(C)C)C(=O)O)CCN(C(=O)OCc2ccccc2)C3)cc1` (stereo not shown) [Example 19, 2-(6-((Benzyloxy)carbonyl)-2-methyl-4-(p-tolyl)-5,6,7,8-tetrahydro-1,6-naphthyridin-3-yl)-2-(tert-butoxy)acetic acid] it is 6.65. As to `Cc1ccc(-c2c3c(nc(C)c2C(OC(C)(C)C)C(=O)O)CCNC3)cc1` (stereo not shown) [Example 20, 2-(tert-Butoxy)-2-(2-methyl-4-(p-tolyl)-5,6,7,8-tetrahydro-1,6-naphthyridin-3-yl)acetic acid], the pEC50 was 4.87.

Take `Cc1ccc(-c2c3c(nc(C)c2C(OC(C)(C)C)C(=O)O)CCN(Cc2ccccc2)C3)cc1` (stereo not shown) [Example 21, 2-(6-Benzyl-2-methyl-4-(p-tolyl)-5,6,7,8-tetrahydro-1,6-naphthyridin-3-yl)-2-(tert-butoxy)acetic acid]: the negative logarithm of the EC50 (pEC50) is 6.53. The same measure for `Cc1ccc(-c2c3c(nc(C)c2C(OC(C)(C)C)C(=O)O)CCN(S(C)(=O)=O)C3)cc1` (stereo not shown) [Example 22, 2-(tert-Butoxy)-2-(2-methyl-6-(methylsulfonyl)-4-(p-tolyl)-5,6,7,8-tetrahydro-1,6-naphthyridin-3-yl)acetic acid]: 5.58; for `Cc1ccc(-c2c3c(nc(C)c2C(OC(C)(C)C)C(=O)O)CCN(C)C3)cc1` (stereo not shown) [Example 23, 2-(tert-Butoxy)-2-(2,6-dimethyl-4-(p-tolyl)-5,6,7,8-tetrahydro-1,6-naphthyridin-3-yl)acetic acid]: 5.68. The figure for `Cc1ccc(-c2c3c(nc(C)c2C(OC(C)(C)C)C(=O)O)CCN(CCc2ccccc2)C3)cc1` (stereo not shown) [Example 24, 2-(tert-Butoxy)-2-(2-methyl-6-phenethyl-4-(p-tolyl)-5,6,7,8-tetrahydro-1,6-naphthyridin-3-yl)acetic acid] is 6.62; for `CC(=O)N1CCc2nc(C)c(C(OC(C)(C)C)C(=O)O)c(-c3ccc(C)cc3)c2C1` (stereo not shown) [Example 25, 2-(6-Acetyl-2-methyl-4-(p-tolyl)-5,6,7,8-tetrahydro-1,6-naphthyridin-3-yl)-2-(tert-butoxy)acetic acid] it is 5.72; for `COC(=O)N1CCc2nc(C)c(C(OC(C)(C)C)C(=O)O)c(-c3ccc(C)cc3)c2C1` (stereo not shown) [Example 26, 2-(tert-Butoxy)-2-(6-(methoxycarbonyl)-2-methyl-4-(p-tolyl)-5,6,7,8-tetrahydro-1,6-naphthyridin-3-yl)acetic acid] it is 5.78. The figure for `Cc1ccc(-c2c3c(nc(C)c2C(OC(C)(C)C)C(=O)O)CCN(C(=O)NCc2ccccc2)C3)cc1` (stereo not shown) [Example 27, 2-(6-(Benzylcarbamoyl)-2-methyl-4-(p-tolyl)-5,6,7,8-tetrahydro-1,6-naphthyridin-3-yl)-2-(tert-butoxy)acetic acid] is 6.30; for `Cc1ccc(-c2c3c(nc(C)c2C(OC(C)(C)C)C(=O)O)CCN(C(=O)CCc2ccccc2)C3)cc1` (stereo not shown) [Example 28, 2-(tert-Butoxy)-2-(2-methyl-6-(3-phenylpropanoyl)-4-(p-tolyl)-5,6,7,8-tetrahydro-1,6-naphthyridin-3-yl)acetic acid] it is 6.47. Take `Cc1ccc(-c2c3c(nc(C)c2C(OC(C)(C)C)C(=O)O)CCN(CCCc2ccccc2)C3)cc1` (stereo not shown) [Example 29, 2-(tert-Butoxy)-2-(2-methyl-6-(3-phenylpropyl)-4-(p-tolyl)-5,6,7,8-tetrahydro-1,6-naphthyridin-3-yl)acetic acid]: the pEC50 is 8.00.

Regarding `Cc1ccc(-c2c3c(nc(C)c2C(OC(C)(C)C)C(=O)O)CCN(c2ccc(-c4ccccc4)cc2)C3)cc1` (stereo not shown) [Example 30, 2-(6-([1,1′-Biphenyl]-4-yl)-2-methyl-4-(p-tolyl)-5,6,7,8-tetrahydro-1,6-naphthyridin-3-yl)-2-(tert-butoxy)acetic acid], the pEC50 was 6.49. The figure for `Cc1ccc(-c2c3c(nc(C)c2C(OC(C)(C)C)C(=O)O)CCN(c2ccccc2)C3)cc1` (stereo not shown) [Example 31, 2-(tert-Butoxy)-2-(2-methyl-6-phenyl-4-(p-tolyl)-5,6,7,8-tetrahydro-1,6-naphthyridin-3-yl)acetic acid] is 6.33; for `COc1ccc(CCCN2CCc3nc(C)c([C@H](OC(C)(C)C)C(=O)O)c(-c4ccc(C)cc4)c3C2)cc1` [Example 33, (S)-2-(tert-Butoxy)-2-(6-(3-(4-methoxyphenyl)propyl)-2-methyl-4-(p-tolyl)-5,6,7,8-tetrahydro-1,6-naphthyridin-3-yl)acetic acid] it is 7.77. The figure for `Cc1ccc(-c2c3c(nc(C)c2[C@H](OC(C)(C)C)C(=O)O)CCN(CCCc2ccc(Cl)cc2)C3)cc1` [Example 34, (S)-2-(tert-Butoxy)-2-(6-(3-(4-chlorophenyl)propyl)-2-methyl-4-(p-tolyl)-5,6,7,8-tetrahydro-1,6-naphthyridin-3-yl)acetic acid] is 7.92. The same measure for `Cc1nc2c(c(-c3cc(F)c4c(c3C)CCCO4)c1[C@H](OC(C)(C)C)C(=O)O)CN(C(=O)OCc1ccccc1)CC2(C)C` [Example 35, (2S)-2-(6-((Benzyloxy)carbonyl)-4-(8-fluoro-5-methylchroman-6-yl)-2,8,8-trimethyl-5,6,7,8-tetrahydro-1,6-naphthyridin-3-yl)-2-(tert-butoxy)acetic acid]: 8.52. On to `Cc1ccc(-c2c3c(nc(C)c2[C@H](OC(C)(C)C)C(=O)O)CCN(C(=O)CCCc2ccccc2)C3)cc1` [Example 36, (S)-2-(tert-Butoxy)-2-(2-methyl-6-(4-phenylbutanoyl)-4-(p-tolyl)-5,6,7,8-tetrahydro-1,6-naphthyridin-3-yl)acetic acid], for which the pEC50 is 7.28. The figure for `Cc1nc2c(c(-c3cc(F)c4c(c3C)CCCO4)c1[C@H](OC(C)(C)C)C(=O)O)CN(Cc1cccc(Cl)c1)CC2(C)C` [Example 37, (2S)-2-(tert-Butoxy)-2-(6-(3-chlorobenzyl)-4-(8-fluoro-5-methylchroman-6-yl)-2,8,8-trimethyl-5,6,7,8-tetrahydro-1,6-naphthyridin-3-yl)acetic acid] is 7.16; for `Cc1nc2c(c(-c3ccc(Cl)cc3)c1[C@H](OC(C)(C)C)C(=O)O)CN(C(=O)OCc1ccccc1)CC2` [Example 38, (S)-2-(6-((Benzyloxy)carbonyl)-4-(4-chlorophenyl)-2-methyl-5,6,7,8-tetrahydro-1,6-naphthyridin-3-yl)-2-(tert-butoxy)acetic acid] it is 6.27. On to `Cc1ccc(-c2c3c(nc(C)c2[C@H](OC(C)(C)C)C(=O)O)CCN(Cc2cccc(Cl)c2)C3)cc1` [Example 39, (S)-2-(tert-Butoxy)-2-(6-(3-chlorobenzyl)-2-methyl-4-(p-tolyl)-5,6,7,8-tetrahydro-1,6-naphthyridin-3-yl)acetic acid], for which the pEC50 is 6.86. The same measure for `Cc1nc2c(c(-c3cc(F)c4c(c3C)CCCO4)c1[C@H](OC(C)(C)C)C(=O)O)CN(CCCc1ccccc1)CC2(C)C` [Example 40, (2S)-2-(tert-Butoxy)-2-(4-(8-fluoro-5-methylchroman-6-yl)-2,8,8-trimethyl-6-(3-phenylpropyl)-5,6,7,8-tetrahydro-1,6-naphthyridin-3-yl)acetic acid]: 8.70; for `Cc1ccc(-c2c3c(nc(C)c2[C@H](OC(C)(C)C)C(=O)O)CCN(Cc2ccc(Cl)cc2)C3)cc1` [Example 41, (S)-2-(tert-Butoxy)-2-(6-(4-chlorobenzyl)-2-methyl-4-(p-tolyl)-5,6,7,8-tetrahydro-1,6-naphthyridin-3-yl)acetic acid]: 6.82. Turning to `Cc1ccc(-c2c3c(nc(C)c2[C@H](OC(C)(C)C)C(=O)O)C(C)(C)CN(CCCc2ccccc2)C3)cc1` [Example 43, (S)-2-(tert-Butoxy)-2-(2,8,8-trimethyl-6-(3-phenylpropyl)-4-(p-tolyl)-5,6,7,8-tetrahydro-1,6-naphthyridin-3-yl)acetic acid], the pEC50 is 7.54. The figure for `Cc1ccc(-c2c3c(nc(C)c2[C@H](OC(C)(C)C)C(=O)O)CCN(CCc2c[nH]c4ccccc24)C3)cc1` [Example 46, (S)-2-(6-(2-(1H-Indol-3-yl)ethyl)-2-methyl-4-(p-tolyl)-5,6,7,8-tetrahydro-1,6-naphthyridin-3-yl)-2-(tert-butoxy)acetic acid] is 6.86. The same measure for `Cc1nc2c(c(-c3cc(F)c4c(c3C)CCCO4)c1[C@H](OC(C)(C)C)C(=O)O)CN(CC1CC1c1ccccc1)CC2` (stereo partly drawn) [Example 50, (2S)-2-(tert-Butoxy)-2-((R)-4-(8-fluoro-5-methylchroman-6-yl)-2-methyl-6-((2-phenylcyclopropyl)methyl)-5,6,7,8-tetrahydro-1,6-naphthyridin-3-yl)acetic acid]: 8.30; for `Cc1ccc(CCCN2CCc3nc(C)c([C@H](OC(C)(C)C)C(=O)O)c(-c4cc(F)c5c(c4C)CCCO5)c3C2)cc1` [Example 54, (2S)-2-(tert-Butoxy)-2-(4-(8-fluoro-5-methylchroman-6-yl)-2-methyl-6-(3-(p-tolyl)propyl)-5,6,7,8-tetrahydro-1,6-naphthyridin-3-yl)acetic acid]: 8.70.
